Data on two compounds can be found in patent US20240300943A1, “NOVEL SALTS OF HETEROCYCLIC COMPOUND AS PROTEIN KINASE INHIBITOR AND USES THEREOF” (HK INNO.N CORPORATION, priority 2021, published 2024).

pIC50: −log10 of the molar value.

In data set [1] the test system is HDM-induced animal model (NC/Nga mice). Kind of data set: HDM-induced atopic dermatitis model (topical). It is filed as in vivo. Here is the method: After the back of the ears and neck of the NC/Nga mice was shaved with a razor, a proper amount of depilatory was applied and depilation was performed. After the depilatory was wiped out, about 100 mg of an atopic dermatitis-inducing reagent (Biostir, Japan) was uniformly applied to the back of the ears and neck using a micro pipette tip.
After hair removal was performed using a razor as needed, 150 μL of 4% SDS aqueous solution was uniformly applied to the back of the ears and neck using a micro pipette. After drying with cold air using a dryer, the solution was naturally dried for about two to three hours. About 100 mg of the AD-inducing reagent was uniformly applied to the back of the ears and neck using a micro pipette tip. All treatments were performed 11 times twice a week for a total of six weeks.
As a test material, an appropriate amount of phosphate in Compound 1 obtained according to Example 3 was weighed and then prepared by dissolving in a local vehicle (acetone:DMSO-7:1 v/v). At the time of preparation and administration, the test material was maintained in a light-shielding state, and was prepared and used every three days under the conditions of light-shielding refrigeration.
The administration of the test material was started from the time when the atopic score reached 2.1 to 2.3 points, and was directly applied to the center of the skin twice/day until the day of autopsy from the start date of administration of the test material (Day 0) for three weeks.
The AD-inducing material was applied and sensitized 24 hours before the autopsy, and the drug was administered and applied one hour before the autopsy. […]
To evaluate atopic dermatitis, evaluation of a skin clinical index (Matsuda et al., 1997) was performed from week 0 of the onset of atopic dermatitis. […] After that, the sum of the scores for each item was evaluated as a final grade.
An IgE concentration in blood was analyzed with serum obtained by centrifuging the blood collected on the day of autopsy, and IL-1B, IL-4, IL-13, TNF-α, IL-6, and IL-31 were analyzed using the extracted skin. […]

A further data set relates to JAK1, Tyk2. The data set is described as follows: Human whole blood assay, JAK1, Tyk2. Type of data set: cell-based. Conditions: cytokine-induced STAT phosphorylation. How it is done: (§1) A stock solution of Compound 1 obtained according to Preparation Example 1 was diluted with distilled water and then serially diluted at ⅕ with 4% DMSO. 5 μL of test material was added to 100 μL of whole blood collected using a 1.7 mL eppendorf tube, mixed, and incubated at 37° C. for 45 minutes.
(§2) IL-6 (10 μg/ml) was diluted with 0.1% BSA/DW to reach 1 μg/mL each. 5 μL of IL-6 was added (at a final concentration of 50 ng/mL) and incubated at 37° C. for 15 minutes. At this time, 5 μL of DPBS was added as a non-stimulated control group. Lyse/fix buffer 5× was diluted 1× in distilled water and used. […]
(§3) For double staining of CD4 and pSTATI, anti-[…] and anti-pSTATI were mixed in a staining buffer and added to each of the samples. […] On the next day, the results were analyzed using FACSCanto II. […]
(§4) The numerical values analyzed by FlowJo were calculated to obtain IC50 values using GraphPad Prism 5 software (product name).
(§5) No treatment response (NTR) was set as a reference, and the degree of the phosphorylation of STAT induced by cytokines was converted into a relative ratio (% control group). A dose-response plot was obtained for each concentration-dependent activity of each test material using GraphPad Prism (version 5.0) and ICso values were calculated.

A further data set has as its system JAK2. The data set is described as follows: Human whole blood assay, JAK2. Type of data set: cell-based. Conditions: cytokine-induced STAT phosphorylation. How it is done:
as §1, §2, §3, §4, §5

Data set [2] is described as follows: Photostability evaluation. Type of data set: physicochemical. From the text:
Samples were packaged in LPDE bag, and stored under visible (1.2M Lux-h), UV (200 W-h/m2) and UV+visible conditions, respectively, and then evaluated.

The nature of data set [3]: Hygroscopicity evaluation. It is filed as physicochemical. The note with it: for Individual related material: in %. From the text:
Samples were placed in a glass desiccator in which relative humidity was adjusted to 33%, 53%, 75%, and 93%, and then stored for two and four weeks to be evaluated.

The pIC50 is −log10 of the IC50, conventionally taken in molar units. Higher therefore signals a small IC50. For the compound `C[C@@H]1CN(C(=O)CC#N)CC=C1c1cc(NC(=O)C2CC2)nc2[nH]ccc12` [Compound 1, (S)—N-(4-(1-(2-cyanoacetyl)-3-methyl-1,2,3,6-tetrahydropyridin-4-yl)-1H-pyrrolo[2,3-b]pyridin-6-yl)cyclopropanecarboxamide], the Atopic dermatitis-related cytokines entry in data set [1] (skin, FIG. 30) is “decrease in atopic dermatitis-related cytokines”. Moreover, in data set [1] (twice/day for three weeks, FIG. 29), the “Serum IgE levels” value is listed as “decreased compared to the control group”. Moreover, the pIC50 with JAK1, Tyk2 was 6.77; in the data set on JAK2, 6.11.
As for `C[C@@H]1CN(C(=O)CC#N)CC=C1c1cc(NC(=O)C2CC2)nc2[nH]ccc12` [Example 3, (S)—N-(4-(1-(2-cyanoacetyl)-3-methyl-1,2,3,6-tetrahydropyridin-4-yl)-1H-pyrrolo[2,3-b]pyridin-6-yl)cyclopropanecarboxamide], the “Skin severity scores (clinical atopic dermatitis score)” value in data set [1] (twice/day for three weeks, all dosed groups, FIG. 28) was “significantly reduced”. For the same compound, the Individual related material in data set [2] (Initial) is 0.08%; in data set [2] (Solid, Control), 0.07%; in data set [2] (Solid, UV (200 W-h/m2)) it was 0.1%; in data set [2] (Solid, UV + Vis), 0.08%; in data set [2] (Solid, UV + Vis Control), 0.08%; in data set [2] (Solid, Vis (1.2M Lux-h)), 0.07%. Moreover, the Individual related material is 0.07 in data set [3] (Initial); 0.07 in data set [3] (relative humidity 33%, 2 W); 0.08 in data set [3] (relative humidity 33%, 4 W); 0.08 in data set [3] (relative humidity 53%, 2 W); 0.07 in data set [3] (relative humidity 53%, 4 W); 0.08 in data set [3] (relative humidity 75%, 2 W). The Individual related material came out at 0.07 in data set [3] (relative humidity 75%, 4 W); 0.08 in data set [3] (relative humidity 93%, 2 W); 0.07 in data set [3] (relative humidity 93%, 4 W). The Total related material in data set [2] (Initial) was determined as 0.45%; in data set [2] (Solid, Control), 0.37%; in data set [2] (Solid, UV (200 W-h/m2)), 0.42%; in data set [2] (Solid, UV + Vis), 0.5%; in data set [2] (Solid, UV + Vis Control), 0.48%; in data set [2] (Solid, Vis (1.2M Lux-h)), 0.41%. Besides, the Total related material worked out at 0.37% in data set [3] (Initial); 0.43% in data set [3] (relative humidity 33%, 2 W); 0.41% in data set [3] (relative humidity 33%, 4 W); 0.43% in data set [3] (relative humidity 53%, 2 W); 0.35% in data set [3] (relative humidity 53%, 4 W); 0.44% in data set [3] (relative humidity 75%, 2 W). Besides, the Total related material came to 0.39% in data set [3] (relative humidity 75%, 4 W); 0.41% in data set [3] (relative humidity 93%, 2 W); 0.33% in data set [3] (relative humidity 93%, 4 W). Further, the Water in data set [3] (Initial) stood at 0.61%; in data set [3] (relative humidity 33%, 2 W), 0.41%; in data set [3] (relative humidity 33%, 4 W), 0.53%; in data set [3] (relative humidity 53%, 2 W) it was 0.53%; in data set [3] (relative humidity 53%, 4 W), 0.66%; in data set [3] (relative humidity 75%, 2 W), 0.60%. For the same compound, the Water in data set [3] (relative humidity 75%, 4 W) was 0.81%; in data set [3] (relative humidity 93%, 2 W), 1.17%; in data set [3] (relative humidity 93%, 4 W), 0.97%.
